# Key:
# Bcl-xL gene expression = test: HGU133 GeneChip DNA array in HN cells: Bcl-xL; format: cell-based, human; conditions: Aβ42 25 μM, DHA 50 nM or NPD1 50 nM, 18 h, nsc = no significant change
# [1] = test system: infarcted volume (stroke volume); test: Stroke volume by TTC staining after MCA-O; format: in vivo, mouse
# Experimental: Assessment of stroke volume. Forty-eight hours after MCA-O, mice were killed, and brains were dissected and immersed in ice-cold saline. The dissected brains were embedded in agar blocks and sectioned into coronal slices 1 mm thick by a vibratome (Vibratome Co. St. Louis, Mo.). Sections were incubated at room temperature in a 3% buffered solution of 2,3,5,-triphenyltetrazolium chloride (TTC). Once color developed (10 to 15 min), sections were fixed in 10% buffered formalin, and kept at 4° C. until images were recorded by a camera (Cool-snap, Nikon) mounted to a dissecting microscope. In the digital images, total brain area and stroke areas were analyzed and calculated by Adobe Photoshop software. Serial sections were made for all animals. (Digital images not included).
# To test for in vivo bioactivity of 10,17S-docosatriene (NPD1) in brain during focal ischemic stroke, Alzet mini-pumps were implanted into the third ventricle to deliver the lipid messenger over the 48 h reperfusion following 1 h of MCA-O. Brain coronal sections were incubated at room temperature in 3% buffered TTC (triphenyltetrazolium chloride) for approximately 10-15 min. The docosanoid 10,17S-docosatriene (NPD1) was infused (1 μg over 48 h by implanted Alzet mini-pumps). In photos, colorless areas indicated mitochondrial damage reflecting the inability to metabolize TTC. […]
# B94 gene expression = test: HGU133 GeneChip DNA array in HN cells: B94; format: cell-based, human; conditions: Aβ42 25 μM, DHA 50 nM or NPD1 50 nM, 18 h, nsc = no significant change
# Excerpt: RNA Isolation and Spectral Quality. Brain tissues were rapidly processed, and total RNA was extracted using Trizol reagent (Invitrogen, Carlsbad, Calif.). Total RNA quality and abundance were profiled using RNA Nano LabChips (Caliper Technologies, Mountainview, Calif.; Agilent Technologies, Palo Alto, Calif.).
# Probe Synthesis and GeneChip Hybridization. Biotinylated antisense cRNAs were synthesized from cDNA using the Superscript Choice System (Invitrogen) and Enzo Biorray High Yield RNA Transcript Labeling kits according to the manufacturer's protocols (Affymetrix) and as described in Colangelo, V., Schurr, J., Ball, M. J., Pelaez, R. P., Bazan, N. G., Lukiw, W. J. (2002) J. Neurosci. Res., 70: 462-473; and Lukiw, W. J. (2004) Neurochem. Research, 29: 1287-1297. Probes were hybridized against HU133Av2 GeneChip DNA arrays that interrogate approximately 33,000 full-length […] genes and expressed sequence tag (EST) clusters. […]
# GeneChip Data and Statistical Analysis. […] Volcano plots were plotted representing total gene expression patterns as a function of fold-change as compared to expression patterns of age-matched controls as plotted against p, as calculated by an analysis of variance (ANOVA). […] Statistical significance was analyzed using a two-way factorial analysis of variance (p, ANOVA; Statistical Analysis System; SAS Institute, Cary, N.C. ).
# TNFα gene expression = test: HGU133 GeneChip DNA array in HN cells: TNFα; format: cell-based, human; conditions: Aβ42 25 μM, DHA 50 nM or NPD1 50 nM, 18 h, nsc = no significant change
# STAT-1-DNA binding = test: EMSA of STAT-1 in hippocampus after MCA-O; format: in vivo, mouse; conditions: 1 h MCA-O, 2 h reperfusion, NPD1 0.16 μg/ml infused 3 h
# Experimental: Electrophoretic mobility-shift assay (EMSA) of human AP1, HIF-1α, NF-κBp50/p65, and STAT-1α. Nuclear protein extracts (NPXTs) were prepared from one to three 3.5 cm-diameter wells of HN cells and quantitated. NPXTs (5 μg) derived from HN cells were incubated with[γ-^32P]-ATP (˜3000 Ci/mmol)-end-labeled AP1, HIF-1α, NF-κκBp50/p65, or STAT-1α consensus and mutant oligonucleotides in 5-μl volumes, reacted for 30 min on ice, analyzed on 5% or 10% acrylamide/90 mM Tris-borate pH 8.4, 1 mM EDTA (TBE) gels, dried onto 2-mm Whatman filter paper at 80° C. for 2 h, and phosphorimaged using a Typhoon Variable Mode Imager (Amersham Pharmacia Biotech, Piscataway, N.J. ).
# FIGS. 7A, 7B, and 7C show mouse hippocampus after 1 h MCA-O was followed by 2 h reperfusion, where either vehicle, DHA, or 10,17S-docosatriene (NPD1) (0.16 μg/ml) was infused into the third ventricle for 3 h at 0.25 μl/h. […] NF-κB was increased over two fold in the ipsilateral hippocampus after MCA-O, and the infusion of either DHA or 10,17S-docosatriene (NPD1) inhibited ischemia-reperfusion-induced NF-κB activation by 28% and 48%, respectively (FIG. 7A).
# caspase-3 = test: Caspase-3 cleavage analysis by Western blot (PARP); format: cell-based, human; conditions: NPD1 50 nM added with TNFα/H2O2, 6-8 h; TNFα/H2O2 alone 80.8%
# Experimental: Caspase-3 cleavage analysis: Caspase-3 cleavage was evaluated by Western-blot analysis after using PARP as substrate. Briefly, 20 μg equivalent of each cell extract was electrophoresed on an 8-16% gel (Promega, Madison, Wis.) for 2 h at 125 volts. The proteins were transferred onto nitrocellulose membranes as before, and probed with PARP antibody (Santa Cruz Biotechnology, Santa Cruz, Calif.). The degradation of PARP was evaluated using ECL kit.
# Effector caspase-3, downstream of pro- and anti-apoptotic proteins, is activated as a consequence of mitochondrial cytochrome c release into the cytoplasm and activation of the apoptosome. ARPE-19 cells were serum-starved for 1 h prior to a 6- to 8-h treatment with TNF-α (10 ng)+H2O2 (either 400 or 800 μM as indicated) in the presence or absence of NPD1 (50 nM). In FIG. 15A, caspase-3 cleavage was detected by Western-blot analysis using PARP (Santa Cruz Biotech.) as antibody. […] In ARPE-19 cells, caspase-3-induced cleavage using endogenous substrate occurred when TNFα/H2O2-triggered oxidative stress was present, as indicated by increased PARP accumulation (an 80.8% increase compared to the control; FIG. 15A).
compound,measurement,setting,value
"CC/C=C\C[C@H](O)\C=C/C=C/C=C/[C@H](O)C/C=C\C/C=C\CCC(=O)O [NPD1, 10,17S-docosatriene]","Bcl-xL gene expression, fold change over untreated controls",Bcl-xL gene expression,+2.4 fold
same,reduction of stroke volume,"[1]; 1 μg over 48 h at 250 nl/h intracerebroventricular, after 48 h",50%
same,"focal infarcted volume, percentage of total volume","[1]; 1 μg over 48 h by Alzet mini-pump into third ventricle, 1 h MCA-O, 48 h reperfusion, vehicle about 30%",less than 15%
same,"B94 gene expression, fold change over untreated controls",B94 gene expression,nsc
same,"TNFα gene expression, fold change over untreated controls",TNFα gene expression,nsc
same,effect on STAT-1-DNA binding,STAT-1-DNA binding,small effect
same,"PARP accumulation (caspase-3 activation), increase compared to the control",caspase-3,18.3%
